According to US7091346B1, “Purine derivatives and processes for their preparation” (Novartis AG, priority 1995, dated 2006):

| melting point [°C] | SMILES |
| --- | --- |
| 191 to 192 | CCn1cnc2c(Nc3ccc(C(F)(F)F)cc3)nc(NCCO)nc21 [Example 104, 9-Ethyl-2-(2-hydroxy-ethyl-amino)-6-(4-trifluoromethyl-phenyl-amino)-9H-purine] |
| 196 | CCn1cnc2c(Nc3cccc(Cl)c3)nc(NCC(C)(C)N)nc21.Cl |
| 117 to 121 | CCn1cnc2c(Nc3cccc(Cl)c3)nc(N[C@@H](C)C(N)=O)nc21 [Example 49, 2-[(S)-1-carbamoyl-ethylamino]-6-(3-chloro-phenyl-amino)-9-ethyl-9H-purine] |
| 143 to 145 | CCn1cnc2c(Nc3cccc(Cl)c3)nc(N(C)C3(O)CCCCC3)nc21 [Example 22, 6-(3-chloro-phenyl-amino)-2-([1-hydroxy-cyclohex-1-yl]-methylamino)-9-ethyl-9H-purine] |
| 184.3 | CCn1cnc2c(Nc3cccc(Cl)c3)nc(N3CCCC(NC=O)C3)nc21 (stereo not shown) [Example 48, 6-(3-chloro-phenyl-amino)-9-ethyl-2-(3-formylamino-piperidin-1-yl)-9H-purine] |
| 159 to 161 | CCn1cnc2c(Nc3cccc(Cl)c3)nc(N3CCC4(CC3)OCCO4)nc21 [Example 54, 6-(3-chloro-phenyl-amino)-2-(1,4-dioxa-8-azaspiro[4.5]dec-8-yl)-9-ethyl-9H-purine] |
| 161 | CCn1cnc2c(Nc3cccc(Cl)c3)nc(NC[C@@H](C)O)nc21 [Example 88, 6-(3-chloro-phenyl-amino)-9-ethyl-2-[(R)-2-hydroxy-propylamino]-9H-purine] |
